The structures appear in SMILES notation.

One assay relates to caspase-3. Put plainly: Fluorometric caspase-3 activity assay in carcinoma cells. The assay is classed as cell-based, human. The settings on record: P5 and P693 cells, cisplatin 2 µg/ml alone; Fig. 1c. Here is the method:
• (a) Human epidermoid lung cancer cells (P693) were injected into nude mice. At a tumour volume of 500 mm^3 weekly treatment with cisplatin (5mg/kg/week) was started. Cisplatin was injected intraperitoneally in the absence (CIS) or presence (DEX/CIS) of DEX which was added to the drinking water (0.28 mg/L) for the duration of the experiment. […] As controls, tumor growth of xenografts from mice which received neither cisplatin nor DEX (CO) or from mice which received DEX only (DEX) was determined. The tumour volume in each animal was measured at weekly intervals for a period of 5 weeks. Data are presented as the means +/- SD of 6 to 8 animals. • (b) The human cervical carcinoma cell lines HeLa and P5 were γ-irradiated (10 Gy) or treated with cisplatin (2 µg/ml) in the absence (white bars) or presence (black bars) of DEX (1 µM). The percentage of apoptosis was measured in untreated (CO) and stimulated cells by annexin-staining and FACS-analysis at the time points indicated. (c) P5, P693 and human leukemic T cells (CEM) cells were treated with cisplatin (2 µg/ml) in the absence or presence of DEX as indicated. 24 and 48 h following treatment cells were lysed and caspase-3 activity was determined by a fluorescent caspase-3 assay and spectroscopy.

The next assay relates to P5, P693 and CEM cells. Put plainly: Mitochondrial membrane potential by JC-1 staining and flow cytometry. The settings on record: 24 h, co-stimulation with cisplatin 2 µg/ml on top of DEX; Fig. 3a. The assay is classed as cell-based, human. Here is the method:
• (a) P5, P693 or CEM cells, either untreated (CO) or stimulated with cisplatin (CIS, 2 µg/ml) were incubated in the absence (white bars) or presence (black bars) of DEX (1 µM). 24 h later cells were stained with the cationic dye JC-1 which indicates mitochondrial depolarization by an increase in green fluorescence. The percentage of green-fluorescent cells was determined by flow cytometry. • (b) P5 cells were treated as described above. 6 or 24 h later mitochondrial fractions were prepared and assayed by Western blotting using a monoclonal antibody which specifically detects the 15 kDa cytochrome c protein. The results depicted here have been performed three times with similar outcome.
• (A) Cell culture. […] The mice were given 0.28 mg/L DEX in drinking water, and the amount of water consumed was monitored. […] The tumour volumes were measured using callipers, and calculated using, as an approximation, the formula for volume of a hemi-ellipsoid: π(width^2 x length)/6. […] Early apoptotic changes were identified by staining of cells with fluoresceinthiocyanate (FITC)-conjugated annexin V and propidium iodide (Becton Dickinson, Heidelberg, Germany) and analysed by flow cytometry (FACScan, Becton Dickinson) as described (Herr et al., EMBO J. 16 (1997), 6200-6208) • (E) Immunohistochemistry. […] Protein expression was detected by Western blotting as described (Herr et al., 1997). […]
Background: A flow cytometer gives signals particle by particle.

For the compound `N.N.[Cl][Pt][Cl]` [cisplatin], in the assay with caspase-3, the caspase-3 activity entry is “induced 48 h following cisplatin”. Also, the “percentage of green fluorescence (mitochondrial damage)” value in the assay with P5, P693 and CEM cells is given as “further enhanced”.

These data come from patent EP1283052A1, “Pharmaceutical composition containing caspase-8 and /or caspase-9 useful for overcoming glucocorticoid- and cancer therapy-induced apoptosis of tumours” (Deutsches Krebsforschungszentrum Stiftung des öffentlichen …, priority 2001, dated 2003).
